# Test results published in US9513294B2, “Megastokes amino-triazolyl-BODIPY compounds and applications to live neuron staining and human serum albumin FA1 drug site probing” (National University of Singapore, priority 2012, dated 2016).
# Tests used:
# [1] = Quantum yield measurements versus Acridine Yellow in EtOH; format: physicochemical; conditions: MK library, Table 5; excitation 460 nm
# In short: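 Fluorescence quantum yield is relative to Acridine Yellow in EtOH (Φ 0.47), with excitation at 460 nm. Integrated emission at 510–700 nm was corrected for absorbance at the excitation wavelength and for solvent refractive index.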
# [2] = Absorbance and fluorescence emission spectra (SpectraMax M2); format: physicochemical; conditions: MK library, Table 5
# In short: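 Absorbance and emission maxima measured on a SpectraMax M2 spectrophotometer, which also gave quantum yield data; analysis in GraphPrism.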
SMILES,φ (quantum yield) [1] [%],λmax Absorp. [2] [nm],λmax Emission [2] [nm]
CCCCCC(O)c1cn(-c2ccc3n2[B-](F)(F)[N+]2=C(NCc4ccccc4OCC)C=CC2=C3c2ccc(N)cc2)nn1 (stereo not drawn) [MK103-69],2.28,474,563
CCOc1ccccc1CNC1=[N+]2C(=C(c3ccc(N)cc3)c3ccc(-n4cc(CO)nn4)n3[B-]2(F)F)C=C1 [MK103-70],1.93,472,562
CCCC(C)c1cn(-c2ccc3n2[B-](F)(F)[N+]2=C(NCc4cc(OC)ccc4OC)C=CC2=C3c2ccc(N)cc2)nn1 (stereo not drawn) [MK181-3],0.36,473,565
COc1ccc(OC)c(CNC2=[N+]3C(=C(c4ccc(N)cc4)c4ccc(-n5cc(C6CC6)nn5)n4[B-]3(F)F)C=C2)c1 [MK181-4],0.28,474,566
COc1ccc(OC)c(CNC2=[N+]3C(=C(c4ccc(N)cc4)c4ccc(-n5cc(C6CCCC6)nn5)n4[B-]3(F)F)C=C2)c1 [MK181-5],0.43,475,563
COc1ccc(OC)c(CNC2=[N+]3C(=C(c4ccc(N)cc4)c4ccc(-n5cc(CC6CCCCC6)nn5)n4[B-]3(F)F)C=C2)c1 [MK181-8],0.33,474,565
COc1ccc(OC)c(CNC2=[N+]3C(=C(c4ccc(N)cc4)c4ccc(-n5cc(CN(C)Cc6ccccc6)nn5)n4[B-]3(F)F)C=C2)c1 [MK181-18],0.52,473,563
COc1ccc(OC)c(CNC2=[N+]3C(=C(c4ccc(N)cc4)c4ccc(-n5cc(CCc6ccccc6)nn5)n4[B-]3(F)F)C=C2)c1 [MK181-19],0.85,474,564
COc1ccc(OC)c(CNC2=[N+]3C(=C(c4ccc(N)cc4)c4ccc(-n5cc(CC(C)C)nn5)n4[B-]3(F)F)C=C2)c1 [MK181-43],0.37,475,566
CCCc1cn(-c2ccc3n2[B-](F)(F)[N+]2=C(NCc4cc(OC)ccc4OC)C=CC2=C3c2ccc(N)cc2)nn1 [MK181-48],0.50,473,563
CCCCCC(O)c1cn(-c2ccc3n2[B-](F)(F)[N+]2=C(NCc4cc(OC)ccc4OC)C=CC2=C3c2ccc(N)cc2)nn1 (stereo not drawn) [MK181-69],0.86,473,563
COc1ccc(OC)c(CNC2=[N+]3C(=C(c4ccc(N)cc4)c4ccc(-n5cc(CO)nn5)n4[B-]3(F)F)C=C2)c1 [MK181-70],0.88,472,568
CCCC(C)c1cn(-c2ccc3n2[B-](F)(F)[N+]2=C(N(C)Cc4ccccc4)C=CC2=C3c2ccc(N)cc2)nn1 (stereo not drawn) [MK195-3],0.46,476,564
CN(Cc1ccccc1)C1=[N+]2C(=C(c3ccc(N)cc3)c3ccc(-n4cc(C5CC5)nn4)n3[B-]2(F)F)C=C1 [MK195-4],0.34,476,566
CN(Cc1ccccc1)C1=[N+]2C(=C(c3ccc(N)cc3)c3ccc(-n4cc(C5CCCC5)nn4)n3[B-]2(F)F)C=C1 [MK195-5],0.39,477,579
CN(Cc1ccccc1)C1=[N+]2C(=C(c3ccc(N)cc3)c3ccc(-n4cc(CC5CCCCC5)nn4)n3[B-]2(F)F)C=C1 [MK195-8],0.36,476,579

SMILES,φ (quantum yield) [1] [%],λmax Absorp. [2] [nm],λmax Emission [2] [nm]
CN(Cc1ccccc1)Cc1cn(-c2ccc3n2[B-](F)(F)[N+]2=C(N(C)Cc4ccccc4)C=CC2=C3c2ccc(N)cc2)nn1 [MK195-18],0.52,475,580
CN(Cc1ccccc1)C1=[N+]2C(=C(c3ccc(N)cc3)c3ccc(-n4cc(CCc5ccccc5)nn4)n3[B-]2(F)F)C=C1 [MK195-19],0.27,477,582
CC(C)Cc1cn(-c2ccc3n2[B-](F)(F)[N+]2=C(N(C)Cc4ccccc4)C=CC2=C3c2ccc(N)cc2)nn1 [MK195-43],0.41,475,571
CCCc1cn(-c2ccc3n2[B-](F)(F)[N+]2=C(N(C)Cc4ccccc4)C=CC2=C3c2ccc(N)cc2)nn1 [MK195-48],0.32,476,584
CCCCCC(O)c1cn(-c2ccc3n2[B-](F)(F)[N+]2=C(N(C)Cc4ccccc4)C=CC2=C3c2ccc(N)cc2)nn1 (stereo not drawn) [MK195-69],0.28,476,591
CN(Cc1ccccc1)C1=[N+]2C(=C(c3ccc(N)cc3)c3ccc(-n4cc(CO)nn4)n3[B-]2(F)F)C=C1 [MK195-70],0.27,475,592
CCCC(C)c1cn(-c2ccc3n2[B-](F)(F)[N+]2=C(N4CCCC4)C=CC2=C3c2ccc(N)cc2)nn1 (stereo not drawn) [MK215-3],0.26,471,567
Nc1ccc(C2=C3C=CC(N4CCCC4)=[N+]3[B-](F)(F)n3c2ccc3-n2cc(C3CC3)nn2)cc1 [MK215-4],0.29,470,576
Nc1ccc(C2=C3C=CC(N4CCCC4)=[N+]3[B-](F)(F)n3c2ccc3-n2cc(C3CCCC3)nn2)cc1 [MK215-5],0.53,471,568
Nc1ccc(C2=C3C=CC(N4CCCC4)=[N+]3[B-](F)(F)n3c2ccc3-n2cc(CC3CCCCC3)nn2)cc1 [MK215-8],0.56,470,574
CN(Cc1ccccc1)Cc1cn(-c2ccc3n2[B-](F)(F)[N+]2=C(N4CCCC4)C=CC2=C3c2ccc(N)cc2)nn1 [MK215-18],0.24,471,583
Nc1ccc(C2=C3C=CC(N4CCCC4)=[N+]3[B-](F)(F)n3c2ccc3-n2cc(CCc3ccccc3)nn2)cc1 [MK215-19],0.22,471,578
CC(C)Cc1cn(-c2ccc3n2[B-](F)(F)[N+]2=C(N4CCCC4)C=CC2=C3c2ccc(N)cc2)nn1 [MK215-43],0.33,471,571
CCCc1cn(-c2ccc3n2[B-](F)(F)[N+]2=C(N4CCCC4)C=CC2=C3c2ccc(N)cc2)nn1 [MK215-48],0.29,470,575
CCCCCC(O)c1cn(-c2ccc3n2[B-](F)(F)[N+]2=C(N4CCCC4)C=CC2=C3c2ccc(N)cc2)nn1 (stereo not drawn) [MK215-69],0.33,470,580
Nc1ccc(C2=C3C=CC(N4CCCC4)=[N+]3[B-](F)(F)n3c2ccc3-n2cc(CO)nn2)cc1 [MK215-70],0.22,471,595
